Key:
Beta-galactosidase = biological target: T1, Beta-galactosidase (Bos taurus, UniProt Q58D55); test: Inhibition of bovine liver beta-galactosidase
T1 sequence (Q58D55 whole entry): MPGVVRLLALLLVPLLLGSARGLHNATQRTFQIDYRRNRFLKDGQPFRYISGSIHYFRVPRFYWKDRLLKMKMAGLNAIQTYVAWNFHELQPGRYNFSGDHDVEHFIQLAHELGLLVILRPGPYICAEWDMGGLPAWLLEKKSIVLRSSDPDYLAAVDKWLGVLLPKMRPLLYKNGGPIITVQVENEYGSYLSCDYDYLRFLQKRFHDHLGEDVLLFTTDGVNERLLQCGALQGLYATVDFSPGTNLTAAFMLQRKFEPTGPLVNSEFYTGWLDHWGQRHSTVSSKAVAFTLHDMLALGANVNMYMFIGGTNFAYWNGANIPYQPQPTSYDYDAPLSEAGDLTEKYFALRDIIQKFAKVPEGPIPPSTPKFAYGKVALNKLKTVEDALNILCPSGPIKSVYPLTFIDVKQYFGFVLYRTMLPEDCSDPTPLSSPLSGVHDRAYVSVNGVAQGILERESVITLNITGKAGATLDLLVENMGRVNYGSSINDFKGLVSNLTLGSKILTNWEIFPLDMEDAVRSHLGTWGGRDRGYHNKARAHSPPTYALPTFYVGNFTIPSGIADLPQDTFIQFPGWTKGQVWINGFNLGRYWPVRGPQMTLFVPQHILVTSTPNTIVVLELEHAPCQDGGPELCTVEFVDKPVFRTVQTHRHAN

Aspergillus niger [1] = test: Inhibition of Aspergillus niger beta-glucosidase at 1000 uM
Rattus norvegicus = species on record: Rattus norvegicus; test: Inhibition of rat intestinal maltase alpha-glucosidase at 1000 uM
[2] = biological target: T2, Glucosylceramidase (Bos taurus) (UniProt Q2KHZ8); test: Inhibition of bovine liver beta-glucosidase at 1000 uM
T2 sequence (whole entry): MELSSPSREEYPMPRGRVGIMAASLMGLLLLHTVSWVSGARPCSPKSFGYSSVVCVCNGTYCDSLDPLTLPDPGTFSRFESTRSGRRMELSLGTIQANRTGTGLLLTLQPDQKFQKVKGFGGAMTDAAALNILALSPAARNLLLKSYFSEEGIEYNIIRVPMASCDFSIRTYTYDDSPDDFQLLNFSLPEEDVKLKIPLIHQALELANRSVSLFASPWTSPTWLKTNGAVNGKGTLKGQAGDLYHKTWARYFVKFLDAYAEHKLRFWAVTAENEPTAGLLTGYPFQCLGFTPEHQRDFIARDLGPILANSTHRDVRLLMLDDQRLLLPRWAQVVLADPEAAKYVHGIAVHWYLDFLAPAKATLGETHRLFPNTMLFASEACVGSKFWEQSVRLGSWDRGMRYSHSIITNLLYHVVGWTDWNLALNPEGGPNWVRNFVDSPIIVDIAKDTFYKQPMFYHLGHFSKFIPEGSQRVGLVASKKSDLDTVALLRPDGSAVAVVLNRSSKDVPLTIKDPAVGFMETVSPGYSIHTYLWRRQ

Prunus dulcis = test: Inhibition of almond beta-glucosidase at 1000 uM
Aspergillus niger [3] = test: Inhibition of Aspergillus niger amyloglucosidase at 1000 uM
[4] = biological target: T3, Tissue alpha-L-fucosidase (Bos taurus) (UniProt Q2KIM0); test: Inhibition of bovine kidney alpha-L-fucosidase at 1000 uM
T3 sequence (whole entry): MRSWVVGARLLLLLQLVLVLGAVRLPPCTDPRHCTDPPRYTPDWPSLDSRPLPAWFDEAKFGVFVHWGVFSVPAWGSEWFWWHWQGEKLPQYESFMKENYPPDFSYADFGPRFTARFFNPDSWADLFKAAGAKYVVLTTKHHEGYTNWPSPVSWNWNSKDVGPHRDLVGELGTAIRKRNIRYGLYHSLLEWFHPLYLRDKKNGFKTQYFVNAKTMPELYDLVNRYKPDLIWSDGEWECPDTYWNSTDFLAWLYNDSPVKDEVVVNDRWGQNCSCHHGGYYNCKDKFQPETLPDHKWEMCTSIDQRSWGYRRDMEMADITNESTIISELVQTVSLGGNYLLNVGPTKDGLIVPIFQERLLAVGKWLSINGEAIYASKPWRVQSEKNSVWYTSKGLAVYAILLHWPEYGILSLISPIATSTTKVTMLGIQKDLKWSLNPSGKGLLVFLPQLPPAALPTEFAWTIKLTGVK

Penicillium decumbens = test: Inhibition of Penicillium decumbens alpha-L-rhamnosidase at 1000 uM
Helix pomatia = test: Inhibition of snail beta-mannosidase at 1000 uM
Canavalia ensiformis = test: Inhibition of jack beans alpha-mannosidase at 1000 uM
[5] = biological target: T4, Uncharacterized protein (Sus scrofa) (UniProt I3LIR5); test: Inhibition of pig kidney alpha, alpha trehalase at 1000 uM
T4 sequence (whole entry): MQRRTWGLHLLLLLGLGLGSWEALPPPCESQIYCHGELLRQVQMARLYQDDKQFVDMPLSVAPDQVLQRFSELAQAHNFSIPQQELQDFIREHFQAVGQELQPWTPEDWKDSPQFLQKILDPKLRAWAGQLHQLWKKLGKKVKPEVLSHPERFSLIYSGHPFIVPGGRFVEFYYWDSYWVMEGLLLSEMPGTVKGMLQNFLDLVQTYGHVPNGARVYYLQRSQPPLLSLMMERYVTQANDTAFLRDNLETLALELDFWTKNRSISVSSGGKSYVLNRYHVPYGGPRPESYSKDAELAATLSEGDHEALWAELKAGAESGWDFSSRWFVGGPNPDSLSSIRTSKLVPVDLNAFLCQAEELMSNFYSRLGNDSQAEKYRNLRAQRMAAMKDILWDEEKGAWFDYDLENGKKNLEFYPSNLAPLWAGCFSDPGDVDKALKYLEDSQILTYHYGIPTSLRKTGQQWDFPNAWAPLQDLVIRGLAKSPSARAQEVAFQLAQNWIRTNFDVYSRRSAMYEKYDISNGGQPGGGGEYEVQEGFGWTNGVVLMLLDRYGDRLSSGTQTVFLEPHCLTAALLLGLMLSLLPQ

[6] = biological target: Oligo-1,6-glucosidase IMA1 (Saccharomyces cerevisiae S288c) (UniProt P53051); test: Inhibition of yeast alpha-glucosidase at 1000 uM
[7] = Inhibition of rice alpha-glucosidase; parameters: species or system Oryza sativa
[8] = biological target: Alpha-galactosidase (Coffea arabica) (UniProt Q42656); test: Inhibition of coffee bean alpha-galactosidase at 1000 uM
[9] = biological target: T5, Tissue alpha-L-fucosidase (Bos taurus, UniProt Q2KIM0); test: Inhibition of bovine kidney alpha-L-fucosidase
T5 sequence (Q2KIM0 whole entry): T3 sequence (whole entry)

Alpha-galactosidase (Coffea arabica), sequence (Q42656 16-378 limits assumed): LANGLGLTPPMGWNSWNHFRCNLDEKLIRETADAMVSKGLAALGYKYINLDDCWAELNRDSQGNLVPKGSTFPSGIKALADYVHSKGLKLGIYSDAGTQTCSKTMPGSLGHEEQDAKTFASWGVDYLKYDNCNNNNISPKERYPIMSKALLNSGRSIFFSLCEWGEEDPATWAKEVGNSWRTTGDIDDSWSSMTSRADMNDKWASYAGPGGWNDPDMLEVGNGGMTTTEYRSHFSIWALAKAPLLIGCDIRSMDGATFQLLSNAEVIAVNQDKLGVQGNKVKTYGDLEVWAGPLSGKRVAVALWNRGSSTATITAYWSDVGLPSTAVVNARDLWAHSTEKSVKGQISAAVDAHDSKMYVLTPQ
Oligo-1,6-glucosidase IMA1 (Saccharomyces cerevisiae S288c), sequence (P53051 whole entry): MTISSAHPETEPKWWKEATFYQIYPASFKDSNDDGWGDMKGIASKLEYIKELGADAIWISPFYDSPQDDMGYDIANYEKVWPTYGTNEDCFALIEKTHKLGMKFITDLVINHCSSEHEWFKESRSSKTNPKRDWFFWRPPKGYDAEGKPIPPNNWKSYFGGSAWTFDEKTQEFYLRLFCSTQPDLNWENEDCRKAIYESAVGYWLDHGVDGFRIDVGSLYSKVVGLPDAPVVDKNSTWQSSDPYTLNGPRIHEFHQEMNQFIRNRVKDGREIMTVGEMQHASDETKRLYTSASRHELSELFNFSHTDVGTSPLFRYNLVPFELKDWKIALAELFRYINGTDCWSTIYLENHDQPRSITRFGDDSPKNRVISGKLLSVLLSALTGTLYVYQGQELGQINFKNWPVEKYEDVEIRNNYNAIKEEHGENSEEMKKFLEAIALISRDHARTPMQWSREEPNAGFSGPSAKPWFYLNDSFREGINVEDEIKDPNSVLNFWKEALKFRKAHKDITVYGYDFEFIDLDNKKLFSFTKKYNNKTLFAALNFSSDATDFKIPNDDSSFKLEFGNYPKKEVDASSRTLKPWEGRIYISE

Structure (SMILES) | IC50 (Beta-galactosidase) [µM] | inhibition (Aspergillus niger [1]) [%] | inhibition (Rattus norvegicus) [%] | inhibition [2] [%] | inhibition (Prunus dulcis) [%] | inhibition (Aspergillus niger [3]) [%] | inhibition [4] [%] | inhibition (Penicillium decumbens) [%] | inhibition (Helix pomatia) [%] | inhibition (Canavalia ensiformis) [%] | inhibition [5] [%] | inhibition [6] [%] | IC50 [7] [µM] | inhibition [8] [%] | Ki [9] [µM]
CCC[C@@H]1NC[C@@H](O)[C@@H](O)[C@H](O)[C@H]1O | 541 | 9.1 | 0 | 6 | 0 | 0 | 0 | 14.8 | 3.6 | 1.6 | 0 | 0 | 839 | 46 | 
O[C@H]1[C@H](O)[C@@H](O)CNC[C@H]1O |  |  |  |  |  |  |  |  |  |  |  |  |  |  | 4.6
